Measured values as given in ChEMBL document CHEMBL5465560, “Selectivity Literature for EUbOPEN Chemogenomic Library” (2024).

Legend:
[1] = target: Serine/threonine-protein kinase 32B (Homo sapiens) (UniProt Q9NY57); conditions: at 10 µM
[2] = target: Ribosomal protein S6 kinase alpha-4 (Homo sapiens) (UniProt O75676); assay: Selectivity interaction (KinomeScan (DiscoverX)) EUB0000655a RPS6KA4; conditions: at 10 µM
[3] = system: Tyrosine-protein kinase ABL1 (Homo sapiens), P00519 [F317L]; assay: (§1) Selectivity interaction (KinomeScan (DiscoverX)) EUB0000655a ABL1; conditions: at 10 µM
[4] = system: Tyrosine-protein kinase ABL1 (Homo sapiens), P00519 [M351T]; assay: as §1; conditions: at 10 µM
[5] = system: Tyrosine-protein kinase ABL1 (Homo sapiens), P00519 [E255K]; assay: as §1; conditions: at 10 µM
[6] = system: Tyrosine-protein kinase ABL1 (Homo sapiens), P00519 [Y253F]; assay: as §1; conditions: at 10 µM
[7] = target: Tyrosine-protein kinase ABL1 (Homo sapiens, UniProt P00519); assay: as §1; conditions: at 10 µM
[8] = system: Tyrosine-protein kinase ABL1 (Homo sapiens), P00519 [F317I]; assay: as §1; conditions: at 10 µM
[9] = system: Tyrosine-protein kinase ABL1 (Homo sapiens), P00519 [T315I]; assay: as §1; conditions: at 10 µM
[10] = system: Tyrosine-protein kinase ABL1 (Homo sapiens), P00519 [H396P]; assay: as §1; conditions: at 10 µM
[11] = system: Tyrosine-protein kinase ABL1 (Homo sapiens), P00519 [Q252H]; assay: as §1; conditions: at 10 µM
[12] = system: Epidermal growth factor receptor (Homo sapiens), P00533 [T790M]; conditions: at 10 µM
[13] = target: Serine/threonine-protein kinase Nek4 (Homo sapiens) (UniProt P51957); assay: Selectivity interaction (Kinase panel (Z-LYTE Assay)) EUB0001632a NEK4; conditions: at 10 µM
[14] = target: Ribosomal protein S6 kinase alpha-3 (Homo sapiens, UniProt P51812); assay: Selectivity interaction (ActivX KiNativ screen (kinase selectivity in THP-1 cell lysates)) EUB0000639a RPS6KA3; format: subcellular; conditions: lysate, at 1 µM
[15] = target: T1, NUAK family SNF1-like kinase 1 (Homo sapiens) (UniProt O60285); assay: Selectivity interaction (Kinase panel (Invitrogen)) EUB0000639a NUAK1; conditions: at 200 nM
T1 sequence (whole entry): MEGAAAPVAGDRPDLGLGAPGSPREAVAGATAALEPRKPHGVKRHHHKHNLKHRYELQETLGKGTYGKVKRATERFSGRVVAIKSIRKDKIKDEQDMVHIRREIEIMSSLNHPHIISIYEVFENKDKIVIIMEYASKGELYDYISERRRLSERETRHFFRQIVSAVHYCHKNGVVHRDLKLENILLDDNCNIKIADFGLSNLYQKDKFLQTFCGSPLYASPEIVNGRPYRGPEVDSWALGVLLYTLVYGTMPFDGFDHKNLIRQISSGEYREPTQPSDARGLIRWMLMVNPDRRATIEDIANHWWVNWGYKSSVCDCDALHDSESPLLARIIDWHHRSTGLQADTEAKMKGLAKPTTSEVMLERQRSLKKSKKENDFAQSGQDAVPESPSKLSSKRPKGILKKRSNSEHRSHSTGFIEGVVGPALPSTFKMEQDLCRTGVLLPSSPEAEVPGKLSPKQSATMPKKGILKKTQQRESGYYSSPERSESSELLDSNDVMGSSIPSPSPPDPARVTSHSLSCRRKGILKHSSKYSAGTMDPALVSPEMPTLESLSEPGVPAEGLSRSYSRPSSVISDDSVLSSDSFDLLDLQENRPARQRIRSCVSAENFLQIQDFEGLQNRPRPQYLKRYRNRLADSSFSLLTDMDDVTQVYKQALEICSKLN

[16] = target: Cyclin-dependent kinase 13 (Homo sapiens, UniProt Q14004); assay: Selectivity interaction (ActivX KiNativ screen (kinase selectivity in THP-1 cell lysates)) EUB0000639a CDK13; format: subcellular; conditions: lysate
[17] = target: Serine/threonine-protein kinase N1 (Homo sapiens, UniProt Q16512); assay: Selectivity interaction (SelectScreen profiling (Invitrogen)) EUB0000607a PKN1; conditions: at 2 µM
[18] = target: Serine/threonine-protein kinase PRP4 homolog (Homo sapiens) (UniProt Q13523); assay: Selectivity interaction (KinomeScan (DiscoverX)) EUB0000695a PRPF4B; conditions: at 100 nM
[19] = target: Fibroblast growth factor receptor 1 (Homo sapiens, UniProt P11362); assay: Selectivity interaction (Ambit KINOMEscan and KiNATiv profiling in Jurkat cells) EUB0000090b FGFR1; format: cell-based; conditions: at 1 µM
[20] = target: Mitogen-activated protein kinase 11 (Homo sapiens) (UniProt Q15759); assay: Selectivity interaction (Ambit KINOMEscan and KiNATiv profiling in Jurkat cells) EUB0000090b MAPK11; format: cell-based; conditions: at 1 µM
[21] = target: Mitogen-activated protein kinase kinase kinase kinase 1 (Homo sapiens) (UniProt Q92918); assay: Selectivity interaction (ActivX KiNativ screen (ex vivo kinase selectivity in human PBMCs)) EUB0001619a MAP4K1; format: cell-based; conditions: PBMC, at 1 µM
Mitogen-activated protein kinase kinase kinase kinase 1 (Homo sapiens), sequence (Q92918 whole entry, looked up): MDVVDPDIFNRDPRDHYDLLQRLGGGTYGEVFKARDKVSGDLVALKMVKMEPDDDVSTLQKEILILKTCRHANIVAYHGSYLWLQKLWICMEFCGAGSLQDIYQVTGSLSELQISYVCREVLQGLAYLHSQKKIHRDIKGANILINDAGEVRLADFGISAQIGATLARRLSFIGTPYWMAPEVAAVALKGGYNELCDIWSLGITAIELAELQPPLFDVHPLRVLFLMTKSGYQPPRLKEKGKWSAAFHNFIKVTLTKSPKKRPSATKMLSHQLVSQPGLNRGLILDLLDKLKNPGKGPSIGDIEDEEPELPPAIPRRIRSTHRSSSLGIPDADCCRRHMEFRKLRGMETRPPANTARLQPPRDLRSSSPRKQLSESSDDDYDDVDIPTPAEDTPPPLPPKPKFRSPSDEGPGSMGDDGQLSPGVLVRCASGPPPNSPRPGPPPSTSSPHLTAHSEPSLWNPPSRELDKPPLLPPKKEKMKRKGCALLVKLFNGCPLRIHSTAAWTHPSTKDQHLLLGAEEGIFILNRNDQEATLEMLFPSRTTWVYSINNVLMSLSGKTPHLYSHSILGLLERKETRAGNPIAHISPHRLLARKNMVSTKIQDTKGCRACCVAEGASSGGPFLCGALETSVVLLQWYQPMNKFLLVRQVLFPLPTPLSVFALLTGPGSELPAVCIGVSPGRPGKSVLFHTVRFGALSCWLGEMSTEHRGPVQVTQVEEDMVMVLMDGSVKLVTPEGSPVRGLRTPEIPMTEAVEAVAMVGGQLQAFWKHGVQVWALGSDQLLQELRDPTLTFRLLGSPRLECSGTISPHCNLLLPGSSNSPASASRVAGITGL

Cyclin-dependent kinase 13, sequence (Q14004 whole entry, looked up): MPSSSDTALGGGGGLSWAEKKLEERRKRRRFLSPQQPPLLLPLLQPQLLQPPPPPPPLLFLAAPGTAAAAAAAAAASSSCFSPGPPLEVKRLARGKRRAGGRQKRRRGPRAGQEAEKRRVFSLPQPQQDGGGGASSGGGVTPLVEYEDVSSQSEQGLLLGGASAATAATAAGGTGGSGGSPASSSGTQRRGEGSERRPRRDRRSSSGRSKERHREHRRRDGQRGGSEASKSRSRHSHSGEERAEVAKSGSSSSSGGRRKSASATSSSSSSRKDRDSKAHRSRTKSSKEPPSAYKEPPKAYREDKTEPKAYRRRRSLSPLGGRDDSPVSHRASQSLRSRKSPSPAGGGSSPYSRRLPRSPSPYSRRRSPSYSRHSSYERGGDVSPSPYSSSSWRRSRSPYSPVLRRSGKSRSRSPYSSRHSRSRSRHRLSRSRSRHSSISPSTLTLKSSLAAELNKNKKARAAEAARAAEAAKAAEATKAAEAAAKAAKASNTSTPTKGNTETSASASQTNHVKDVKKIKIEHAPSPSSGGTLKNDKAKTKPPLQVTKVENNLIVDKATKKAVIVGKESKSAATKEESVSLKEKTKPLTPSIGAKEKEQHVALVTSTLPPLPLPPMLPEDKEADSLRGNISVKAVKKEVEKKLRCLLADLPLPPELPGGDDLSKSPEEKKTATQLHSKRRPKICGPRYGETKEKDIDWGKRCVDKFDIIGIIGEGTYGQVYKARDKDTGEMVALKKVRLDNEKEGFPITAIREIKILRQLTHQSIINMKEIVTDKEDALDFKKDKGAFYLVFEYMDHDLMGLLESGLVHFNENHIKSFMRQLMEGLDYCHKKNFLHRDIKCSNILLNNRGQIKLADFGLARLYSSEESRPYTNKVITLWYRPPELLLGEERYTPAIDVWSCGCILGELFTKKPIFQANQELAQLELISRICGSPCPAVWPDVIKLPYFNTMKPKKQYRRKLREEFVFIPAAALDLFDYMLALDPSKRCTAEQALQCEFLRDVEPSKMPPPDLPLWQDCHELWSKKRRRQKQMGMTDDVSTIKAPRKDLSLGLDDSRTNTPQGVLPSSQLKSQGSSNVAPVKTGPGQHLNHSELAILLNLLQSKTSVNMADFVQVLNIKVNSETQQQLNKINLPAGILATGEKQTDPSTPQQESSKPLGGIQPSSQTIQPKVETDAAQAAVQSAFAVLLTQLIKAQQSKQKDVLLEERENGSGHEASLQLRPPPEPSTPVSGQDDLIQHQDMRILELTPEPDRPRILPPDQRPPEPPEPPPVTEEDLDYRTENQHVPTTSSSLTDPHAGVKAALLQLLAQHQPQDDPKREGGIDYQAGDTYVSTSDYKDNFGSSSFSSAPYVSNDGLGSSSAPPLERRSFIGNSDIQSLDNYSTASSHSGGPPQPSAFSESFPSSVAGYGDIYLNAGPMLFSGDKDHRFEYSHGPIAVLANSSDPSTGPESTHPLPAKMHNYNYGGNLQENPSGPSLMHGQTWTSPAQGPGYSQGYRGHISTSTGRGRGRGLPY
Serine/threonine-protein kinase 32B (Homo sapiens), sequence (Q9NY57 whole entry): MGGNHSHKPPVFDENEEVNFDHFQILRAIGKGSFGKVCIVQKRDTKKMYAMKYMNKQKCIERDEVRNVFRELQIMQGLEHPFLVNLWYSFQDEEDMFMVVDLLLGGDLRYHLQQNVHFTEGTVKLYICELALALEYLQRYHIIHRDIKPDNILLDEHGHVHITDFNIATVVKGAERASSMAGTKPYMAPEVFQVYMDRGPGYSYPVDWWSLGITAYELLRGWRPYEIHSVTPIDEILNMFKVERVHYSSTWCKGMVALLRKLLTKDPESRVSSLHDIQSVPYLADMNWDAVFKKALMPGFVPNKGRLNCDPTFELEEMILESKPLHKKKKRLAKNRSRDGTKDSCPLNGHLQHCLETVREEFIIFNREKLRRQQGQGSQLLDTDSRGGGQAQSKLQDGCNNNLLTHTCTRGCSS
Ribosomal protein S6 kinase alpha-3, sequence (P51812 whole entry): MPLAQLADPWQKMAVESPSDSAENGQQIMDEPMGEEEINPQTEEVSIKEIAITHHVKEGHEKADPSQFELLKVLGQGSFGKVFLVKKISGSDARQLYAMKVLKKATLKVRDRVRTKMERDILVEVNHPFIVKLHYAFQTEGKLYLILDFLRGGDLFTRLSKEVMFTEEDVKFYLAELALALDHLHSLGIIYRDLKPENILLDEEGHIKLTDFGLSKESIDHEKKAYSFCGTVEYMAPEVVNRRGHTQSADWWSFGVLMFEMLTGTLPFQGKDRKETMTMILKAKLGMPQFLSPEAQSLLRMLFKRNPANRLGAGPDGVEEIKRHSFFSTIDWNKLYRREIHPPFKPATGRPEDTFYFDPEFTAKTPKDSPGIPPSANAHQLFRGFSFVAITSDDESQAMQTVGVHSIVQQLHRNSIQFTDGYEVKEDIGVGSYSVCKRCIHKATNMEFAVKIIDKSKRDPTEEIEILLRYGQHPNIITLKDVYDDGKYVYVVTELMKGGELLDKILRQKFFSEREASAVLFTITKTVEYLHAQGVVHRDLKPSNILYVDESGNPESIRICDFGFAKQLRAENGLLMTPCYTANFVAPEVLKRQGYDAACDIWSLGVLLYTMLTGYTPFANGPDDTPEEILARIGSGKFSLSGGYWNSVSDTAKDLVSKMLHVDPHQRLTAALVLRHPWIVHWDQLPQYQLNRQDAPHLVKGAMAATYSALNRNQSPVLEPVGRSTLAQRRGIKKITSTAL
Serine/threonine-protein kinase PRP4 homolog (Homo sapiens), sequence (Q13523 whole entry): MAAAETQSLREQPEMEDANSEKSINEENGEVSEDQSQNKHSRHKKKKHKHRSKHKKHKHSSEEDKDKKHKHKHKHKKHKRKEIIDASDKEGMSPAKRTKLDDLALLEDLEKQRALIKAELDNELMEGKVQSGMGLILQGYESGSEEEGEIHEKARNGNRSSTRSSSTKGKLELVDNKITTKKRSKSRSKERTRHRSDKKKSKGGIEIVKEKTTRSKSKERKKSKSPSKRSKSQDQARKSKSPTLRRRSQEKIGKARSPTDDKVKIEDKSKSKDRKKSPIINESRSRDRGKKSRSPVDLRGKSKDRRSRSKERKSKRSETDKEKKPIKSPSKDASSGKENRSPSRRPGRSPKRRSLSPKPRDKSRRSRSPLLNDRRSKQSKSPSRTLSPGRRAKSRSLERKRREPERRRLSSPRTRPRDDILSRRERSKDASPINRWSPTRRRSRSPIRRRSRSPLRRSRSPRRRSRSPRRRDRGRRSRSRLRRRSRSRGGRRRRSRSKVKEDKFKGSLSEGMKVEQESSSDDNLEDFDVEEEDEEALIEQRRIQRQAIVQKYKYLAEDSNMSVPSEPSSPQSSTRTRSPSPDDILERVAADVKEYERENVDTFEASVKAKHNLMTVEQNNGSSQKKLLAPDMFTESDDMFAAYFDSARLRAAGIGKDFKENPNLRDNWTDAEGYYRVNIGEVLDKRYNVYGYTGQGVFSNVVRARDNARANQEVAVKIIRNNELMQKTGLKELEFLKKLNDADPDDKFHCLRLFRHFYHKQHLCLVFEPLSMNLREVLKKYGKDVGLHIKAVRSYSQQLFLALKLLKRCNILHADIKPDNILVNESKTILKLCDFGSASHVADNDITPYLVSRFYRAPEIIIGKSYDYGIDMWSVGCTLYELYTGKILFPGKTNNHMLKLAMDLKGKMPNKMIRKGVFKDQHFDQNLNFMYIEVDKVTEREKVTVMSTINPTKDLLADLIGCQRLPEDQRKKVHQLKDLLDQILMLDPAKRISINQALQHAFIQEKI
Mitogen-activated protein kinase 11 (Homo sapiens), sequence (Q15759 whole entry): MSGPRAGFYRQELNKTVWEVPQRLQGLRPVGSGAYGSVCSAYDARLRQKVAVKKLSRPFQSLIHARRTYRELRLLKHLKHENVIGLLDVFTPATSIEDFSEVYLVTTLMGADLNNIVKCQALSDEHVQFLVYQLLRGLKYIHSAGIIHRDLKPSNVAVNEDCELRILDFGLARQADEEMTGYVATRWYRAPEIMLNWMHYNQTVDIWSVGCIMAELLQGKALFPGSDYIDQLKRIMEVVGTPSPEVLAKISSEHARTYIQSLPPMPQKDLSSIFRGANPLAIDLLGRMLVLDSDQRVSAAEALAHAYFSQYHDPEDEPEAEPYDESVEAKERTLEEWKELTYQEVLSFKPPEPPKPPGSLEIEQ

CCN(CC)CCCCNc1ncc2cc(-c3cc(OC)cc(OC)c3)c(NC(=O)NC(C)(C)C)nc2n1
% of control [1]: 100%

CN(C)CCOc1ccc(-c2nc(-c3ccncc3)c(-c3ccc4c(c3)CC/C4=N\O)[nH]2)cc1
% of control [2]: 81%
% of control [3]: 37%
% of control [4]: 11%
% of control [5]: 8.6%
% of control [6]: 9.1%
% of control [7]: 10%
% of control [8]: 72%
% of control [9]: 1.6%
% of control [10]: 1.3%
% of control [11]: 3%

Cc1cc([C@@H](C)Nc2ccccc2C(=O)O)c2nc(N3CCOCC3)cc(=O)n2c1 [AZD-6482]
% of control [12]: 100%

Cn1cc(-n2cnc3c(NCc4nc5cc(Cl)c(Cl)cc5[nH]4)nc(N4CCOCC4)nc32)cn1
% of control [13]: 0.309%

CC[C@@H]1[C@H](F)C(=O)N[C@@H]1COc1nccc2cc(C(N)=O)c(OC)cc12 [ZIMLOVISERTIB]
% of inhibition [14]: 0.1%
% of inhibition [15]: 2.96%
% of inhibition ([16]; at 0.01 µM): 3.8%
% of inhibition ([16]; at 0.04 µM): -10.7%
% of inhibition ([16]; at 0.2 µM): -1.5%
% of inhibition ([16]; at 1 µM): -2.6%
% of inhibition ([16]; at 5 µM): 5.1%

CNC(=O)Nc1ccc(-c2nc(N3CC4CCC(C3)O4)c3cnn(C4CCC5(CC4)OCCO5)c3n2)cc1
% of inhibition [17]: 14%

Cc1cc(F)c(C(=O)Nc2cccc(-c3nncn3C(C)C)n2)cc1-n1cnc(C2CC2)c1
% of control [18]: 81%

CN(C)C/C=C/C(=O)Nc1ccc(C(=O)N2CCCC(Nc3ncc(Cl)c(-c4c[nH]c5ccccc45)n3)C2)cc1 (stereo not given)
% of control [19]: 82%
% of control [20]: 97%

N#Cc1cccc(-c2c[nH]c3ncnc(N4CCOCC4)c23)c1
% of inhibition [21]: 7%
